Assay results taken from US20260008818A1, “CYCLIC PEPTIDE OR SALT THEREOF, AND USES THEREOF” (FUJIFILM Corporation, priority 2023, published 2026).
Numbered stars: 1 amine (or outer) side, 2 acyl side, 3 side chain; on linkers, the order of the positions; unused ones are H or OH. Bridge positions count the residues as written; N and C are the ends. Square brackets hold non-standard residues; d marks the D form. Ends that are not written are not given here. I, II: the chains in the order shown. ξ: configuration not given here. ξY = NC(Cc1ccc(O)cc1)C(=O)O; ξR = N=C(N)NCCCC(N)C(=O)O; Dap = NC[C@H](N)C(=O)O; X1 = O=C(C[*:1])[*:2]; ξK = NCCCCC(N)C(=O)O; ξP = O=C(O)C1CCCN1; ξC = NC(CS)C(=O)O

Tests used:
bovine myoblasts = assay: Bovine cell (myoblast) proliferation-promoting effect; type: cell-based, Japanese Black cattle; conditions: 0.03 to 10 nmol/L, 4 days; viable cells normalized to 30 ng/mL bFGF = 100, negative control = 0
Procedure: The bovine cells (myoblasts) proliferation-promoting effect of the cyclic peptide complex was evaluated.
Bovine myoblasts were separated from bovine muscle tissue by the following method. First, muscle tissue of Japanese Black cattle was finely chopped in HBSS (−) (phenol red-free) (FUJIFILM Wako Pure Chemical Corporation, 085-09355), and then pronase from Streptomyces griseus (Sigma-Aldrich, 10165921001) was added thereto to a final concentration of 1 mg/mL, and the mixture was allowed to stand at 37° C. for 1 hour. After allowing to stand, HBSS containing 10% FBS was added thereto, and the cells were acquired by centrifugation. The acquired cells were suspended in D-MEM (high glucose) (containing L-glutamine and phenol red) (FUJIFILM Wako Pure Chemical Corporation, 044-29765) containing 10% final concentration of bovine serum and 30 ng/mL bFGF. Suspended cells were cultured in a culture flask coated with an iMatrix-511 solution (FUJIFILM Wako Pure Chemical Corporation, 381-07363) at 0.55 μg/cm^2. […]
The evaluation of the proliferation-promoting effect on bovine myoblasts was performed by the following method. […] The number of viable cells was calculated from the imaging data and normalized by setting the number of viable cells in the well to which 30 ng/mL bFGF was added to 100, and setting the number of viable cells in the negative control well to 0.

[1] = system: hMSC-Human Mesenchymal Stem Cells; assay: Mesenchymal stem cell (MSC) proliferation-promoting effect; type: cell-based; conditions: 0.001 to 3 nmol/L, bFGF-free custom culture medium; viable cells normalized to 1 nmol/L bFGF = 100, negative control = 0
Procedure: The mesenchymal stem cell (MSC) proliferation-promoting effect of the cyclic peptide complex was evaluated.
The MSC was activated and subcultured according to the recommended protocol of FUJIFILM Irvine Scientific, Inc. using hMSC-Human Mesenchymal Stem Cells (Lonza, PT-2501) and PRIME-XV MSC Expansion XSFM (FUJIFILM Irvine Scientific, Inc., 91149) as a culture medium. MSCs that had been subcultured 1 to 4 times were used for the evaluation.
The evaluation of the proliferation-promoting effect of MSC was performed by the following method. First, a culture medium (hereinafter, referred to as a custom culture medium) in which bFGF was removed from PRIME-XV MSC Expansion XSFM (FUJIFILM Irvine Scientific, Inc., 91149) was prepared. Next, Prime-XV Human Fibronectin (FUJIFILM Irvine Scientific, Inc., 31002) was dissolved in PBS (Fujifilm Wako Pure Chemical Corporation, 164-23551), 2 μg/cm^2 of the solution was added to a 96-well plate used for evaluation, and the 96-well plate was allowed to stand at room temperature for 3 hours to coat the 96-well plate with fibronectin. […] The number of viable cells was calculated from the imaging data and normalized by setting the number of viable cells in the well to which 1 nmol/L bFGF was added to 100, and setting the number of viable cells in the negative control well to 0.

[2] = system: hMSC-Human Mesenchymal Stem Cells; assay: Effect of maintaining MSC undifferentiated potency (gene expression); type: cell-based; conditions: cyclic peptide complex 3 nmol/L or bFGF 1 nmol/L, normalized to 1 nmol/L bFGF = 1, bFGF compared with negative control
Procedure: The effect of maintaining mesenchymal stem cell (MSC) undifferentiated potency of the cyclic peptide complex was evaluated.
MSC was prepared in the same manner as in Example 7.
The evaluation of the effect of maintaining the MSC undifferentiated potency was performed by the following method. First, a culture medium (hereinafter, referred to as a custom culture medium) in which bFGF was removed from PRIME-XV MSC Expansion XSFM (FUJIFILM Irvine Scientific, Inc., 91149) was prepared. Next, Prime-XV Human Fibronectin (FUJIFILM Irvine Scientific, Inc., 31002) was dissolved in PBS (Fujifilm Wako Pure Chemical Corporation, 164-23551), 2 μg/cm^2 of the solution was added to a 12-well plate used for proliferation, and the 12-well plate was allowed to stand at room temperature for 3 hours to coat the 12-well plate with fibronectin. Thereafter, the MSCs subjected to the subculture were peeled using Tryple Express (Thermo, 12604-013), washed once with a custom culture medium, suspended in a custom culture medium in which a cyclic peptide complex or bFGF (R&D Systems, 3718-GMP) was diluted to final concentrations of 3 nmol/L and 1 nmol/L, and seeded on a 12-well plate coated with fibronectin. In this case, conditions in which the cyclic peptide complex and bFGF were not added as a negative control were prepared. After culturing at 37° C. (5% CO2) for 2 nights, the culture medium was replaced by removing the supernatant of the culture medium and adding the same amount of a culture medium prepared to have the same composition as the removed culture medium. After further culturing at 37° C. (5% CO2) for 2 nights, RNA was extracted using an RNeasy Plus Mini Kit (Qiagen, 74136) according to the manufacturer's protocol. […] The expression level of each gene was normalized by setting the expression level of the well to which 1 nmol/L bFGF was added to 1.

I: H[ξC]SYERLEFHGHEAPFRV[ξK]V[Dap]-NH2 / II: HCS[ξY]E[ξR]LQFHGHEA[ξP]FRVK[dV] (linker I:2-I:19, II:2-II:19 via X1; amide I:21-II:C) [SEQ ID NO: 393, (H-(C)-SYERLQFHGHEAPFRV-(K(acetyl))-V)2-Dap]
bovine myoblast proliferation action (bovine myoblasts): about 80% | MSC proliferation action [1]: the same degree of MSC proliferation action as bFGF | expression level of Sox2 [2]: the same degree of a gene expression level as bFGF
